Data: publication PMC7582324, “Potential Anti-Acetylcholinesterase Activity of Cassia timorensis DC” (Molecules, 2020)
Values after ≈ are worked out from the molar mass of the structure shown. “Also recorded” adds a separate entry of the source. Like-named read-outs stand apart in the source and are kept apart here.

Legend:
[1] = molecular target: Acetylcholinesterase (AChE) from Electrophorus electricus (electrical eels) type VI-S (Electrophorus electricus, UniProt O42275); assay: biochemical; assay type: biochemical; conditions: for inhibition at 100 µg/mL: read-out: AChE inhibition (%)
Description: Coloring agent 5-5′dithiobis [2-nitrobenzoicacid] (DTNB) was purchased from ACROS (Geel, Belgium). Silica gel (Kieselgel 60, 230–400 mesh atm) was purchased from Merck (Darmstadt, Germany). The solvents were of analytical grade and used as received.
The in vitro AChE inhibition assay was evaluated using a spectrophotometry method developed by Ellman with some modifications. […] Plant extracts were dissolved in dimethyl sulfoxide (DMSO) and tested at a final concentration of 0.2 mg/mL, while compounds were tested at 0.1 mg/mL. The final concentration of DMSO was fixed at 1% in the 96-well plate. In a 96-well plate, 178 µL of 50 mM phosphate buffer, 2 µL of […] compound and 20 mg/mL extract, and 10 µL of 0.5 U/mL AChE were added. The first incubation period was 15 min at 25 °C. Five microliters of 14 mM ATCI substrate and 10 mM of the color indicator, DTNB, were added equally into each well and the well was then incubated at 25 °C for 30 min to initiate the enzyme reaction. The absorbance was measured at 415 nm using Promega Glomax® Multi Plus Reader (Promega, Madison, WI, USA). […] The percentage of inhibition was calculated using formula (1):(1) Percentage Inhibition (%) = Absorbance of negative control − Absorbance of test sample/ Absorbance of negative control × 100
IC50 values of plant crude extract, fractions, and compounds were calculated from the graph of percentage of inhibition versus extract concentrations using Microsoft Excel. GraphPad Prism software was used to generate the graphs.

AChE = conditions: individual compounds; cited from earlier work
[2] = cited from earlier work
[3] = isolated compounds at 0.1 mg/mL

Sequence of Acetylcholinesterase (AChE) from Electrophorus electricus (electrical eels) type VI-S (O42275 24-633): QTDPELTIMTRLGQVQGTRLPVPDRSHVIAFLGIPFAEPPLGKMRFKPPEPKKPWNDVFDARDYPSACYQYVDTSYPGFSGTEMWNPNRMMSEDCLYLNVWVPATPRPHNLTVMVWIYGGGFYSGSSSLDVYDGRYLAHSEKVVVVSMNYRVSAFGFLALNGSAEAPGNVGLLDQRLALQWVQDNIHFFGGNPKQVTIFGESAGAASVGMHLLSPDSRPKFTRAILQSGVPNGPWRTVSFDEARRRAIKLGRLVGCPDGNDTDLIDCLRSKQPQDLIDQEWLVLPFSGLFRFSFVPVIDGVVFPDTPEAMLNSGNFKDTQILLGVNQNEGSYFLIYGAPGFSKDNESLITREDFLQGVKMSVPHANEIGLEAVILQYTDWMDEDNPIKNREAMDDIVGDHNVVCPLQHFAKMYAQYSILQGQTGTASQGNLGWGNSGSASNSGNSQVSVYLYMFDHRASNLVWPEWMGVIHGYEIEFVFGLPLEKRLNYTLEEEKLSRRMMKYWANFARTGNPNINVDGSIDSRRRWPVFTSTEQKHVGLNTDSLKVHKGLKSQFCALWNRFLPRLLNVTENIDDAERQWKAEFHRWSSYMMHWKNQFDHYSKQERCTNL

Row | Compound | inhibition at 100 µg/mL [1] [%] | BBB permeability [2] | further results
1 | COc1c(-c2ccc(O)c(O)c2)oc2cc(O)cc(O)c2c1=O [Compound 1, 3-methoxyquercetin] | – | – | AChE activity relative to quercetin [1]: approximately three times higher than quercetin; AChE inhibitory activity (in words) [1, 3]: moderate inhibition; IC50 ([1]; mean ± s.d. (n = 3), read-out: AChE Inhibition (IC50)): 83.7 ± 4.67 µM
2 | CCC=CCC=CCC=CCCCCCCCC(=O)O [Compound 3, 9,12,15-octadecatrienoic acid] | < 50 | – | AChE inhibitory activity (in words) [1]: weak inhibitory activity; also recorded: not active
3 | CC[C@H](CC[C@@H](C)[C@H]1CC[C@H]2[C@@H]3CC=C4C[C@@H](O)CC[C@]4(C)[C@H]3CC[C@]12C)C(C)C [Compound 4, β-sitosterol] | < 50 | – | IC50 against AChE (AChE): 55 µg/mL (≈ 133 µM)
4 | CC[C@H](/C=C/[C@@H](C)[C@H]1CC[C@H]2[C@@H]3CC=C4C[C@@H](O)CC[C@]4(C)[C@H]3CC[C@]12C)C(C)C [Compound 5, stigmasterol] | < 50 | – | IC50 against AChE (AChE): 63 µg/mL (≈ 153 µM)
5 | CCCCCCCCCCCCCCCCCCO [Compound 6, 1-octadecanol] | < 50 | – | AChE inhibitory activity (in words) [1, 3]: weak inhibitory activity; also recorded: not active
6 | COc1ccc(-c2cc(=O)c3c(O)c(OC)c(O)c(OC)c3o2)cc1 [nevadensin] | – | high BBB permeability | –
7 | COc1cc(-c2cc(=O)c3c(O)c(OC)c(O)c(OC)c3o2)ccc1O [sudachitin] | – | high BBB permeability | –
8 | aceronin | – | high BBB permeability | –
